Assay results from paper PMC5891386 (Bioorganic & medicinal chemistry, 2018).

Key:
[1] = test system: aspartate levels in cells; details: irrespective of PHGDH levels; cited from earlier work
[2] = Aqueous kinetic solubility; format: physicochemical; details: pH 7.4
PHGDH = details: cited from earlier work

SMILES	Aqueous Solubility (kinetic) [2]	efficacy in vivo (PHGDH)	also measured
Cc1cc(C)nc(NC(=S)N2CCN(c3ccc(C(F)(F)F)cn3)CC2)c1 [Compound 27, N-(4,6-dimethylpyridin-2-yl)-4-(5-(trifluoromethyl)pyridin-2-yl)piperazine-1-carbothioamide]	–	–	aspartate levels in cells [1]: reduce aspartate levels in cells
Cc1cc(C)nc(NC(=S)N2CCCC(Nc3ccc(C(F)(F)F)cc3)C2)c1 (centres unmarked) [Compound 33]	below the limits of quantitation	–	–
Cc1cc(C)nc(NC(=S)N2CCC(Nc3cccc(C(F)(F)F)c3)CC2)c1 [Compound 37]	below the limits of quantitation	–	–
O=C(N/N=C/c1cc([N+](=O)[O-])ccc1O)c1ccc(O)cc1O [PKUMDL-WQ-2101]	–	efficacious in vivo	–
CCNC(=S)N/N=C/c1ccc(-c2ccc(C(=O)O)c(Cl)c2)o1 [PKUMDL-WQ-2201]	–	efficacious in vivo	–
